Earlier results as cited in US20180136238A1 (priority 2016, published 2018).
Where two headings read alike, the source gives them in different places.

What was measured:
[1] = in vivo
[2] = blood, equilibrium of bicarbonate complex with protein bound uranyl ions

For [CH3][Hg][CH3] [dimethyl mercury], the LD50 dose [1] is listed as 0.015 mg/kg.
In the case of [Hg+2].[S-2] [mercuric sulfide], the LD50 dose [1] is given as ~100,000.0 mg/kg.
In the case of [U] [uranium], the “uranium in blood bicarbonate-formed” value [2] is listed as 60%, the “uranium in blood protein-formed” value [2] is listed as 40% and the “uranium in blood associated with red blood cells” value (other studies) is listed as 20%. For the same compound, the “uranium in blood present in the inorganic compartment of plasma” value (other studies) was 74% and the “uranium in blood protein-formed” value (other studies) was 32%.
For arsenic, the LD50 dose [1] is given as 14 mg/kg.
